# Assay results from patent publication US20230106032A1, “IMIDAZOTRIAZINES ACTING ON CANCER VIA INHIBITION OF CDK12” (Bayer Aktiengesellschaft, priority 2020, published 2023).
# Experiments:
# Type in all cases: cell-based
# [1] = system: MDA-MB-231 human breast cancer cells; experiment: Proliferation assay MDA-MB-231 (crystal violet); conditions: 96 h, MDA-MB-231 cells, 4 days, read-out: Prolif-MDA MB231 IC50-[mol/l] (median)
# Procedure: (§1) Human tumour cells were originally obtained from the American Type Culture Collection (ATCC), or from the Deutsche Sammlung von Mikroorganismen und Zellkulturen (DSMZ, German Collection of Microorganisms and Cell Cultures). Cultivated tumour cells (CAL-120, human breast adenocarcinoma cells, DSMZ ACC-459; MDA-MB-231, human breast cancer cells, ATCC HTB-26) were plated at a density of 4,000 cells/well in a 96-well multititer plate in 200 microL of their respective growth medium supplemented 10% fetal calf serum. After 24 hours, the cells of one plate (zero-point plate) were stained with crystal violet (see below), while the medium of the other plates was supplemented with the test substances in various concentrations (0 micromol/L, as well as in the range of 0.01-10 micromol/L; the final concentration of the solvent dimethyl sulfoxide was adjusted to 0.1%) using a Tecan HP D300 Digital Dispenser. The cells were incubated for 4 days in the presence of test substances. Cell proliferation was determined by staining the cells with crystal violet: the cells were fixed by adding 20 microL/measuring point of an 11% glutaric aldehyde solution for 15 minutes at room temperature. After three washing cycles of the fixed cells with water, the plates were dried at room temperature. The cells were stained by adding 100 microL/measuring point of a 0.1% crystal violet solution (pH 3.0). After three washing cycles of the stained cells with water, the plates were dried at room temperature. The dye was dissolved by adding 100 microL/measuring point of a 10% acetic acid solution. The extinction was determined by photometry at a wavelength of 595 nm. The change of cell number, in percent, was calculated by normalization of the measured values to the extinction values of the zero-point plate (=0%) and the extinction of the untreated (0 μM) cells (=100%). The IC50 values (inhibitory concentration at 50% of maximal effect) were determined by means of a 4 parameter fit.
# [2] = target: T1, CDK12 (Homo sapiens, UniProt Q9NYV4); experiment: CDK12 nuclear protein level: immunofluorescence/high content analysis in CAL-120 cells; conditions: for DC50: CAL-120 cells, 24 h, nuclear CDK12 staining, read-out: CDK12 degradation IF DC50-[mol/l] (median); for (IC50 CDK12 high ATP) to (Degradation DC50 CDK12) ratio: IC50 CDK12 hATP (Table 2) divided by DC50 CDK12 IF (Table 8)
# T1 construct: endogenous in cells; host or cells: CAL-120 human breast cancer cells (DSMZ ACC 459)
# Procedure: In the context of the present invention, the term “DC50 CDK12” refers to the DC50 values obtained according to the assay described in this section (6) herein below, i.e. the DC50 values for the degradation of CDK12.
# CAL-120 human breast cancer cells (DSMZ ACC 459) are seeded in 1536-well microtiter plates (800 cells per well) containing 50 nanoL of compounds in Dose-Response. Control wells received DMSO or Reference Example 1. Plates are then incubated for 24 h at 37° C. in an humidified incubator and fixed with 4% PFA for 10 min. Then immunofluorescence (IF) against CDK12 (CellSignalling CDK12 Antibody #11973, rabbit, 1:100 dilution) is performed using standard IF protocols. Cells are then stained with Hoechst 33342 (Life Technologies, H-1399, 0.1 microg/ml) and imaged on an automated confocal microscopy system (e.g. Perkin Elmer Opera Phenix). Nuclear and cytoplasmic intensity as well as the nuclear/cytoplasmic intensity ratio is determined by automated image analysis using custom generated scripts (MetaXpress). Data is then transferred to Genedata Screener software, normalized to DMSO and control and DC50 values (degrading concentration to achieve 50% reduction of nuclear CDK12 staining intensity relative to controls) are reported.
# [3] = system: CAL-120 human breast adenocarcinoma cells; experiment: Proliferation assay CAL-120 (crystal violet); conditions: 96 h, CAL-120 cells, 4 days, read-out: Prolif-CAL-120_ IC50-[mol/l] (median)
# Procedure: as §1
# T1 sequence (Q9NYV4 whole entry): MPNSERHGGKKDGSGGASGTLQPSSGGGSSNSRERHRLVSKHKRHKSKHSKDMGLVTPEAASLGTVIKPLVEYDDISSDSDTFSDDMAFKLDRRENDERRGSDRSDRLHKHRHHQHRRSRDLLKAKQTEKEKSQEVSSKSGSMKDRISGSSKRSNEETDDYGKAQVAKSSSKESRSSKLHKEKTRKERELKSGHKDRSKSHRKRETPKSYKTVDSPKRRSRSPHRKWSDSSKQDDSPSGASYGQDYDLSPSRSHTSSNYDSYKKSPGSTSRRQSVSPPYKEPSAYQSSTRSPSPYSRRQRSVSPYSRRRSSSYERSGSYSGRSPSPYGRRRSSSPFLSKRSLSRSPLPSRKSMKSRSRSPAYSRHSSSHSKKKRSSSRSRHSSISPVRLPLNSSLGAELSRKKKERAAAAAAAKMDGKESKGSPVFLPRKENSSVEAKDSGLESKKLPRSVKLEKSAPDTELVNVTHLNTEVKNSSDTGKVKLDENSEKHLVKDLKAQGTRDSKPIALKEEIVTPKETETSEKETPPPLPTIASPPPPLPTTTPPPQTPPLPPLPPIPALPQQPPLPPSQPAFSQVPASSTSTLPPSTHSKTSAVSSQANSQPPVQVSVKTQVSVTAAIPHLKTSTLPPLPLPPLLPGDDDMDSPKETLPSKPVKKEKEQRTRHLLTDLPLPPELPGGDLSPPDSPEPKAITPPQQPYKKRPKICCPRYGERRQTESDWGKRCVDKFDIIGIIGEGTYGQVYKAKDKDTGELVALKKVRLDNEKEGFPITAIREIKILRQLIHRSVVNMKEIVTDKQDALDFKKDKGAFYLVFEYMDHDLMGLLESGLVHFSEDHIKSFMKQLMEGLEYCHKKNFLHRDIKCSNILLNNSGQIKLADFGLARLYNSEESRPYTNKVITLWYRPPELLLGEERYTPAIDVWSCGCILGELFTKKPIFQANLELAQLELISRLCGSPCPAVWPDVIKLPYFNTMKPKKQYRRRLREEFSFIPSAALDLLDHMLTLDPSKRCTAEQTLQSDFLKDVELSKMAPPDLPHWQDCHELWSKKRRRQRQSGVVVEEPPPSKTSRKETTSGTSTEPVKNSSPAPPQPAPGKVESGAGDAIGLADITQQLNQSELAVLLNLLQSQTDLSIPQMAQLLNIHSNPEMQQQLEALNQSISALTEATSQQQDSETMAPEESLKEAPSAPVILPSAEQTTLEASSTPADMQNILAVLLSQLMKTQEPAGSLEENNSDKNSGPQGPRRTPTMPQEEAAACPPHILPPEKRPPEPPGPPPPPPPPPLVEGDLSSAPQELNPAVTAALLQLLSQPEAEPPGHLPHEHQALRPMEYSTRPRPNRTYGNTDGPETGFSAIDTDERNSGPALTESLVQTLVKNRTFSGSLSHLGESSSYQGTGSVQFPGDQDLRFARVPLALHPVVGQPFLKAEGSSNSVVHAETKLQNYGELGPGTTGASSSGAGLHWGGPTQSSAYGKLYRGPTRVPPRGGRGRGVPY
# T1 sequence (O75909 whole entry partner): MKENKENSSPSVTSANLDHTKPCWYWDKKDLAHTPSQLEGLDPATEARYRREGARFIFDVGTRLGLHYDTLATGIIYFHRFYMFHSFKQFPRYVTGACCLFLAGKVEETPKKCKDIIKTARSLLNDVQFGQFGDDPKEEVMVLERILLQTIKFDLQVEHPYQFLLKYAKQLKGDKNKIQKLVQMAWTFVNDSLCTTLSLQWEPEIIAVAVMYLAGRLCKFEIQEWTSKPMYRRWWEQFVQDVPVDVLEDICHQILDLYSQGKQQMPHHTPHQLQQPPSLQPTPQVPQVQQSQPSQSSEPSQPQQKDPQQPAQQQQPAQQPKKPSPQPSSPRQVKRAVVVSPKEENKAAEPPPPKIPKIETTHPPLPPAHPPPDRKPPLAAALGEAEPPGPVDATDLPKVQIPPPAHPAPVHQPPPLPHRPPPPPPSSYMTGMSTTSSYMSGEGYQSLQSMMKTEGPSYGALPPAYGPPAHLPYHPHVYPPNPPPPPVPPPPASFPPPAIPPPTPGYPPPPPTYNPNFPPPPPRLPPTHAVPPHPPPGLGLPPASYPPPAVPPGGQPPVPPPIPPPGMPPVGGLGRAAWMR
IC50 [1],DC50 [2],(IC50 CDK12 high ATP) to (Degradation DC50 CDK12) ratio [2],IC50 [3],SMILES
19.7 nM,2.78 nM,5916,4.82 nM,"CN1CCN(c2nc(NCc3nc4cc(F)ccc4[nH]3)c3ncc(Br)n3n2)CC1 [Example 21, 7-bromo-N-[(5-fluoro-1H-benzimidazol-2-yl)methyl]-2-(4-methylpiperazin-1-yl)imidazo[2,1-f][1,2,4]triazin-4-amine]"
2.49 nM,0.132 nM,10329,0.859 nM,"Fc1ccc2[nH]c(CNc3nc(N4CCNCC4)nn4c(Br)cnc34)nc2c1F [Example 10, 7-bromo-N-[(4,5-difluoro-1H-benzimidazol-2-yl)methyl]-2-(piperazin-1-yl)imidazo[2,1-f][1,2,4]triazin-4-amine]"
59.2 nM,13 nM,76,53.8 nM,"C[C@@H]1CN(c2nc(NCc3nc4ccccc4[nH]3)c3ncc(Br)n3n2)C[C@H](C)O1 [Example 4, N-[(1H-benzimidazol-2-yl)methyl]-7-bromo-2-[rel-(2R,6S)-2,6-dimethylmorpholin-4-yl]imidazo[2,1-f][1,2,4]triazin-4-amine]"
–,4.83 nM,1444,103 nM,"N#Cc1cnc2c(NCc3nc4ccccc4[nH]3)nc(N3CCOCC3)nn12 [Example 2, 4-{[(1H-benzimidazol-2-yl)methyl]amino}-2-(morpholin-4-yl)imidazo[2,1-f][1,2,4]triazine-7-carbonitrile]"
0.839 nM,0.229 nM,177,0.536 nM,"C[C@@H]1CN(c2nc(NCc3nc4c(F)c(F)ccc4[nH]3)c3ncc(C(F)(F)F)n3n2)C[C@H](C)N1 [Example 29, N-[(4,5-difluoro-1H-benzimidazol-2-yl)methyl]-2-[rel-(3R,5S)-3,5-dimethylpiperazin-1-yl]-7-(trifluoromethyl)imidazo[2,1-f][1,2,4]triazin-4-amine]"
1.52 nM,0.274 nM,2691,1.2 nM,"C[C@@H]1CN(c2nc(NCc3nc4ccccc4[nH]3)c3ncc(C(F)(F)F)n3n2)C[C@H](C)N1.O=CO [Example 24, N-[(1H-benzimidazol-2-yl)methyl]-2-[rel-(3R,5S)-3,5-dimethylpiperazin-1-yl]-7-(trifluoromethyl)imidazo[2,1-f][1,2,4]triazin-4-amine Formate (1/1)]"
–,7.62 nM,15,19.3 nM,"OC[C@@H]1CCCCN1c1nc(NCc2nc3ccccc3[nH]2)c2ncc(Br)n2n1 [Example 17, [(2S)-1-(4-{[(1H-benzimidazol-2-yl)methyl]amino}-7-bromoimidazo[2,1-f][1,2,4]triazin-2-yl)piperidin-2-yl]methanol]"
17.3 nM,13.8 nM,12,9.95 nM,"CN(CC(C)(C)O)c1nc(NCc2nc3ccccc3[nH]2)c2ncc(C(F)(F)F)n2n1 [Example 30, 1-[{4-[(1H-benzimidazol-2-ylmethyl)amino]-7-(trifluoromethyl)imidazo[2,1-f][1,2,4]triazin-2-yl}(methyl)amino]-2-methylpropan-2-ol]"
9.6 nM,0.575 nM,8519,2.04 nM,"C[C@@H]1CN(c2nc(NCc3nc4ccccc4[nH]3)c3ncc(Br)n3n2)C[C@H](C)N1 [Example 9, N-[(1H-benzimidazol-2-yl)methyl]-7-bromo-2-[rel-(3R,5S)-3,5-dimethylpiperazin-1-yl]imidazo[2,1-f][1,2,4]triazin-4-amine]"
3.45 nM,0.631 nM,2854,2.08 nM,"C[C@@H]1CN(c2nc(NCc3nc4c(F)cccc4[nH]3)c3ncc(Br)n3n2)C[C@H](C)N1 [Example 18, 7-bromo-2-[rel-(3R,5S)-3,5-dimethylpiperazin-1-yl]-N-[(4-fluoro-1H-benzimidazol-2-yl)methyl]imidazo[2,1-f][1,2,4]triazin-4-amine]"
2.83 nM,0.58 nM,2887,1.99 nM,"CN1CCN(c2nc(NCc3nc4c(F)c(F)ccc4[nH]3)c3ncc(C(F)(F)F)n3n2)CC1 [Example 28, N-[(4,5-difluoro-1H-benzimidazol-2-yl)methyl]-2-(4-methylpiperazin-1-yl)-7-(trifluoromethyl)imidazo[2,1-f][1,2,4]triazin-4-amine]"
71 nM,3.84 nM,>4836,61.4 nM,"CN1CCN(c2nc(NCc3nc4ccccc4[nH]3)c3ncc(Br)n3n2)CC1 [Example 6, N-[(1H-benzimidazol-2-yl)methyl]-7-bromo-2-(4-methylpiperazin-1-yl)imidazo[2,1-f][1,2,4]triazin-4-amine]"
2.73 nM,0.513 nM,12546,1.14 nM,"C[C@@H]1CN(c2nc(NCc3nc4cc(F)ccc4[nH]3)c3ncc(Br)n3n2)C[C@H](C)N1 [Example 19, 7-bromo-2-[rel-(3R,5S)-3,5-dimethylpiperazin-1-yl]-N-[(5-fluoro-1H-benzimidazol-2-yl)methyl]imidazo[2,1-f][1,2,4]triazin-4-amine]"
42 nM,6.8 nM,751,–,"Brc1cnc2c(NCc3nc4ccccc4[nH]3)nc(N3CCOCC3)nn12 [Example 1, N-[(1H-benzimidazol-2-yl)methyl]-7-bromo-2-(morpholin-4-yl)imidazo[2,1-f][1,2,4]triazin-4-amine]"
27.9 nM,1.79 nM,742,12.3 nM,"COc1cccc2[nH]c(CNc3nc(N4CCOCC4)nn4c(Br)cnc34)nc12 [Example 13, 7-bromo-N-[(4-methoxy-1H-benzimidazol-2-yl)methyl]-2-(morpholin-4-yl)imidazo[2,1-f][1,2,4]triazin-4-amine]"
34.3 nM,4.04 nM,2680,14.2 nM,"CN1CCN(c2nc(NCc3nc4c(F)cccc4[nH]3)c3ncc(Br)n3n2)CC1 [Example 23, 7-bromo-N-[(4-fluoro-1H-benzimidazol-2-yl)methyl]-2-(4-methylpiperazin-1-yl)imidazo[2,1-f][1,2,4]triazin-4-amine]"
13.1 nM,1.32 nM,4779,5.89 nM,"COc1cccc2[nH]c(CNc3nc(N4CCN(C)CC4)nn4c(Br)cnc34)nc12.O=CO [Example 16, 7-bromo-N-[(4-methoxy-1H-benzimidazol-2-yl)methyl]-2-(4-methylpiperazin-1-yl)imidazo[2,1-f][1,2,4]triazin-4-amine Formate (1/1)]"
–,36 nM,>556,–,"Fc1cccc(-c2cnc3c(NCc4nc5ccccc5[nH]4)nc(N4CCOCC4)nn23)c1 [Example 3, N-[(1H-benzimidazol-2-yl)methyl]-7-(3-fluorophenyl)-2-(morpholin-4-yl)imidazo[2,1-f][1,2,4]triazin-4-amine]"
–,2.07 nM,66,7.97 nM,"C[C@@H]1CN(c2nc(NCc3nc4c(F)c(F)ccc4[nH]3)c3ncc(Br)n3n2)C[C@H](C)O1 [Example 5, 7-bromo-N-[(4,5-difluoro-1H-benzimidazol-2-yl)methyl]-2-[rel-(2R,6S)-2,6-dimethylmorpholin-4-yl]imidazo[2,1-f][1,2,4]triazin-4-amine]"
